Data as given in patent publication US12661355B2, “Compounds and methods for inducing UCP1 expression” (The Regents of the University of California, priority 2020, dated 2026).

How the values were obtained:
[1] = test system: UCP1; assay: Gene expression in immortalized human brown adipocytes; format: cell-based; conditions: 10 μM for 4 days
Method: Human immortalized brown and white preadipocytes were obtained from Dr. Yu-Hua Tseng (Joslin Diabetes Center, Harvard Medical School, USA). The generation of the two cell lines from human neck adipose tissue biopsies and immortalization was performed as previously described but from a different donor. Cells were cultured in high glucose DMEM supplemented with 10% FBS and antibiotics. Two days after reaching confluence, cells were treated with 30 μM biotin, 500 nM insulin, 17 μM pantothenate, 100 nM dexamethasone, 2 nM 3,3′,5-Triiodo-L-thyronine, 500 μM IBMX, 30 μM indomethacin and 1 μM rosiglitazone, for 12 days. Afterwards, cells were treated with 30 μM biotin, 500 nM insulin, 17 μM pantothenate and 2 nM 3,3′,5-Triiodo-L-thyronine (Maintenance media) for 2 days with end-point assays performed on day 18, and for 5 days with end-point assays performed on day 21, for the brown and white adipocytes cells, respectively.
Mouse RNA levels were measured by qPCR according to known methods. Data were normalized to B2m and Tbp reference genes. Human RNA was extracted using an RNA Mini Plus kit (Zymo) and gene expression determined by Taqman assay. The 1-step qPCR was run on a QuantStudio 12K Flex Real Time PCR System (ThermoFisher) using the following protocol: 50° C. for 5 minutes, 95° C. for 20 seconds, 40 cycles of 95° C. for 15 seconds and 60° C. for 60 seconds. […]

[2] = test system: brown adipocytes; assay: Lipolysis assay in brown adipocytes; format: cell-based, mouse; conditions: immortalized brown adipocytes, 10 μM overnight
Method: Lipolysis was assessed in cultured cells using medium collected over 3 h with the Adipolysis assay kit (AB100, Millipore), according to the manufacturer's protocol.

[3] = molecular target: T1, AKAP1 (Mus musculus, UniProt O08715); assay: Western blot of mitochondria-associated proteins, AKAP1; format: cell-based; conditions: brown adipocytes, 10 μM, after 6-8 h
T1 construct: from tissue; host or cells: mouse brown adipose tissue (BAT) lysate; also mouse brown adipocyte extracts
T1 sequence (O08715 30-857): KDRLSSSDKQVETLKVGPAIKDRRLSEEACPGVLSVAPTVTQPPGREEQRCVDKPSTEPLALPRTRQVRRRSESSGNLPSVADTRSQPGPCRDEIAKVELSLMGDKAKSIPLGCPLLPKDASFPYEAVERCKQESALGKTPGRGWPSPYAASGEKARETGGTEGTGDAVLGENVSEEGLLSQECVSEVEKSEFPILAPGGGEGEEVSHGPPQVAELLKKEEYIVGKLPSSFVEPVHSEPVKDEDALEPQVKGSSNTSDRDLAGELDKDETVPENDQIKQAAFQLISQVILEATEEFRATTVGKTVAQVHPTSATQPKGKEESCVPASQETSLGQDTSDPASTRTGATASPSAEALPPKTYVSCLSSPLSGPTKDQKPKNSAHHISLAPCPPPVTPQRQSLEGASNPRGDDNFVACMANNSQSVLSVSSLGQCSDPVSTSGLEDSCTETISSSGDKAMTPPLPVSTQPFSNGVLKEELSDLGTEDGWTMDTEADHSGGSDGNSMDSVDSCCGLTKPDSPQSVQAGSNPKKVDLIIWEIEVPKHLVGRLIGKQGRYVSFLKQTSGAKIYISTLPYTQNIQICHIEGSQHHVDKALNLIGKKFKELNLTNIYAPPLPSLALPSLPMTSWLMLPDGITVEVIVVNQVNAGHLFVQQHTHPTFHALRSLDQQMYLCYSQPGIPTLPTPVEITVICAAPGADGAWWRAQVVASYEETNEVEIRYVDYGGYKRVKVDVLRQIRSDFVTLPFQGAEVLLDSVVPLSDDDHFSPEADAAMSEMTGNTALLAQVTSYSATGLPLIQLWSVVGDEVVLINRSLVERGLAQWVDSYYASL
Method: (§1) Cells and tissues were lysed in 10 mM Tris pH 7.5, 10 mM NaCl, 1 mM EDTA and 0.5% Triton X-100, supplemented with complete mini EDTA-free protease (Roche Diagnostics) and phosphatase (Cocktail 2 and 3, Sigma) inhibitors, followed by 10 second sonication. For analysis of mitochondrial proteins, mitochondria were isolated from cells by dual centrifugation, as described. Protein lysates were separated by SDS-PAGE and transferred to a nitrocellulose membrane. Transfer was confirmed by Ponceau staining (P7170, Sigma). After blocking in 5% milk, 0.1% Tween-20 in Tris-buffered saline (TBS), primary antibody was incubated overnight at 4° C. in 5% bovine serum albumin and 0.1% Tween-20 in TBS. Primary antibodies against ACTB (GTX109639, GeneTex), AKAP1 (5203, Cell Signaling), AKAP6 (07-087, Millipore), Cytochrome c (136F3, Cell Signaling), electron transport chain protein complexes (Total OXPHOS rodent WB antibody cocktail ab110413, Abcam), GAPDH (GTX100118, Genetex), active p38 MAPK (V1211, Promega), total p38 MAPK (8690, Cell Signaling), PGC1α (AB3242, Millipore), phospho-(Ser/Thr) PKA substrate (9621, Cell Signaling), PKA C-α (4782, Cell Signaling), PKA RII-β (ab75993, Abcam), and UCP1 (662045, Calbiochem) were used at 1:2000. […] Quantification using representative bands from the Ponceau staining was performed with ImageJ. […]

[4] = test system: CYTC and GAPDH; assay: Western blot of mitochondria-associated proteins, CYTC and GAPDH; format: cell-based, mouse; conditions: brown adipocytes, 10 μM
Method: as §1

Question: COc1ccc(NC(=O)CSc2nc3ccccc3c(=O)[nH]2)c(OC)c1 [Z160] was tested. Which CIDEA expression [1] did it give?
Answer: increased expression

Question: And the UCP1 expression [1]?
Answer: ~7 fold

Question: And the lipolysis [2]?
Answer: induced lipolysis

Question: And the “AKAP1 protein levels in the mitochondrial fraction” value [3]?
Answer: increased

Question: What about the “levels of CYTC and GAPDH in the mitochondrial fraction” value [4] of the same compound?
Answer: not altered
